Data reported in US7288660B2, “Process for preparing ondansetron hydrochloride dihydrate having a defined particle size” (Taro Pharmaceutical Industries Limited, priority 2004, dated 2007).
Structures can show the parent of a compound that is named as a salt.

Tests used:
[1] = Particle size determination by laser diffraction (MALVERN Mastersizer 2000); type: physicochemical; details: for <150 μm (fraction of particles by volume smaller than specified diameter) / Mean particle size / <63 μm (fraction of particles by volume smaller than specified diameter): hydrochloride dihydrate
Description: Particle Size Determination by Laser Diffraction
The particle size of the obtained ondansetron hydrochloride dihydrate particles was determined as set forth above (See Methodology and Protocols). The mean particle size and particle size distribution of the particles (fraction of particles by volume smaller than specified diameter) are presented in the following table.

[2] = particles from the '578 patent process (cooling isopropanol/water solution); cited from earlier work
[3] = Drying: 40° C., eight (8) hours, 25° C., two (2) days
[4] = Drying: Ambient conditions, six (6) hours
[5] = Drying: None (i.e., wet particles after filtration)

Compound | <250 μm (fraction of particles by volume smaller than specified diameter) ([1]; dried particles) | <150 μm (fraction of particles by volume smaller than specified diameter) ([1]; dried particles) | Mean particle size ([1]; dried particles) | <63 μm (fraction of particles by volume smaller than specified diameter) ([1]; dried particles) | further results
Cc1nccn1CC1CCc2c(c3ccccc3n2C)C1=O (single isomer, unassigned) [Example 1, ondansetron hydrochloride dihydrate] | 100% | 90% | 96 μm |  | <60 μm (fraction of particles by volume smaller than specified diameter) ([1]; dried particles): 19%
Cc1nccn1CC1CCc2c(c3ccccc3n2C)C1=O (stereo not shown) [Example 6, ondansetron hydrochloride dihydrate] |  |  |  |  | <60 μm [1, 3]: 15%; <350 μm [1, 3]: 100%; <60 μm ([1]; Drying: 40° C., four (4) hours): 28%; <280 μm ([1]; Drying: 40° C., four (4) hours): 100%; <60 μm ([1]; Drying: 40° C., two (2) hours): 35%; <290 μm ([1]; Drying: 40° C., two (2) hours): 100%; <60 μm [1, 4]: 28%; <280 μm [1, 4]: 100%; <60 μm [1, 5]: 31%; <280 μm [1, 5]: 100%
Cc1nccn1CC1CCc2c(c3ccccc3n2C)C1=O (single isomer, unassigned) [Example 4, ondansetron hydrochloride dihydrate] | 100% | 85% | 81 μm | 12% | 
Cc1nccn1CC1CCc2c(c3ccccc3n2C)C1=O (single isomer, unassigned) [Example 5, ondansetron hydrochloride dihydrate] | 100% | 85% | 89 μm | 26% | 
Cc1nccn1CC1CCc2c(c3ccccc3n2C)C1=O (stereo not shown) [ondansetron hydrochloride dihydrate] |  |  |  |  | Fraction of particles smaller than 250 μm [2]: less than 60%

Now from value to molecule, other results behind:

<250 μm (fraction of particles by volume smaller than specified diameter) ([1]; dried particles) | <150 μm (fraction of particles by volume smaller than specified diameter) ([1]; dried particles) | Mean particle size ([1]; dried particles) | <63 μm (fraction of particles by volume smaller than specified diameter) ([1]; dried particles) | Compound | further results
100% | 85% | 81 μm | 34% | Cc1nccn1CC1CCc2c(c3ccccc3n2C)C1=O (single isomer, unassigned) [Example 3, ondansetron hydrochloride dihydrate] | 
100% | 90% | 81 μm | 31% | Cc1nccn1CC1CCc2c(c3ccccc3n2C)C1=O (single isomer, unassigned) [Example 2, ondansetron hydrochloride dihydrate] | 
